{"source": "patent US8278289B2", "about": "“Boroxine composition for removal of skin changes” (priority 2006, dated 2012)", "key": {"[1]": {"system": "mouse carcinoma cells SCC VII", "assay": "Cytotoxic effect on mouse carcinoma cells SCC VII (crystal violet viability)", "format": "cell-based", "conditions": "viable cells by absorbance at 590 nm after 24 hours with substance; XS100 = dosage 0.5 μg; variation max 10%", "procedure": "(§1) An investigation of anti-tumor activity of the boroxine compound (XS) was conducted on cell lines of mouse fibro-sarcoma FsaR and mouse carcinoma SCC VII.\n(§2) Cell lines (mouse fibro-sarcoma FsaR and mouse carcinoma SCC VII) were incubated at optimal conditions for 24 hours, followed by addition of tested substances in a dosage of 0.5 μg (XS100) and combinations with Li (lithium) and SNP (sodium-nitroprusside) Li (lithium) is blocker of GSK-3 (glycogen-synthetase-kinase), an enzyme involved in pathways that modulate cell's death. SNP (sodium-nitroprusside) is modulator of pro-apoptotic protein p53 (tumor suppressor protein).\n(§3) Cells were additionally incubated for 24 hours in the presence of the substances. Later, cells were fixed by glutaraldehyde and stained in 0.1% crystal violet. Stain attached to the viable cells was extracted by 0.2% Triton-X 100 and extract absorbance was determined at 590 nm. Value of absorbance is proportional with viable cells number.\n(§4) The following results have been obtained (the observed variation of the observed values are a maximum of 10%)."}, "[2]": {"system": "mouse fibro-sarcoma FsaR", "assay": "Cytotoxic effect on mouse fibro-sarcoma FsaR (crystal violet viability)", "format": "cell-based", "conditions": "viable cells by absorbance at 590 nm after 24 hours with substance; XS100 = dosage 0.5 μg; variation max 10%", "procedure": "as §1, §2, §3, §4"}}, "data": [{"substance": "K2[B3O3F4OH] [XS100]", "values": [{"measurement": "% of control", "setting": "[1]", "value": "42 % of control"}, {"measurement": "% of control", "setting": "[2]", "value": "21 % of control"}]}]}
